Results published in patent US7446091B2, “Methods and preparations for curing clinically ill patients” (Novo Nordisk A/S, priority 2000, dated 2008).

Tested on: patients treated in the ICU
Assay: Example 1: prospective clinical study, weekly EMG screening for CIPNP in long-stay ICU patients
Assay type: in vivo, human
Conditions: for CIPNP-free time on the ICU: long-stay patients
Method: Between Feb. 2 and Apr. 25, 2000, 400 patients were included in the study. […] All other treatments, including feeding regimens, were according to standing orders currently applied within the ICU. Exclusion criteria were age <18y, pregnancy and not being intubated at admission.
When patients were still treated in the ICU after 7 days, a weekly EMG examination was performed to screen for the presence of CIPNP. The EMGs were always interpreted by the same expert in electrophysiology. In order to accurately assess ICU stay, which is often determined by other factors than the patient's condition—e.g. bed availability on the wards—“end of ICU stay” was defined as the day on which the attending physician considers the patient to be “ready for discharge”.

Q: For insulin, which “Long-stay ICU patients with a positive EMG for CIPNP (% of the long stayers)” value (intensive insulin group) is on record?
A: Its value is 39%.

Q: And the “Number of positive EMGs for CIPNP per patient (mean ± SD)” value (intensive insulin group)?
A: Its value is 0.9±1.8.

Q: What about the “Number of positive EMGs for CIPNP per patient (median)” value (intensive insulin group) of the same substance?
A: Its value is “zero”.

Q: And the “Long-stay ICU patients with a positive EMG for CIPNP at any time during the ICU stay, number” value (intensive insulin group, 38 long-stay patients)?
A: The value was “Fifteen”.

Q: And the “ICU-mortality, difference between the two treatment groups” value (intensive vs restrictive insulin schedule, P=0.4)?
A: The value was “not detectably different”.

Q: And the “CIPNP-free time on the ICU” value (intensive insulin group)?
A: Its value is 2.1±1.8 weeks.

Q: And the “CIPNP-free time on the ICU” value (restrictive insulin group)?
A: The value was 1.1±1.2 weeks.

Q: What about the “Long-stay ICU patients with a positive EMG for CIPNP (% of the long stayers)” value (restrictive insulin group) of the same substance?
A: Its value is 67%.

Q: And the “Number of positive EMGs for CIPNP per patient (mean ± SD)” value (restrictive insulin group)?
A: Its value is 1.8±2.1.

Q: What about the “Number of positive EMGs for CIPNP per patient (median)” value (restrictive insulin group) of the same substance?
A: The value was 1.

Q: What about the “Long-stay ICU patients with a positive EMG for CIPNP at any time during the ICU stay, number” value (restrictive insulin group, 45 long-stay patients) of the same substance?
A: The value was 30.
